# Target: T1, MAT2A (Homo sapiens, UniProt P31153)
# T1 construct: His6; made in house; host or cells: SF9 insect cells
# Experiment: MAT2A biochemical assay (colorimetric inorganic phosphate detection, PiColorLock)
# Details: recombinant His6-tagged MAT2A 1 μg/ml; 60 minutes preincubation at 25° C.; L-Met 80 μM, ATP 100 μM; 60 minutes reaction; read at 623 nm; read-out: MAT2A Inhibition Score
# How it was run: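 Colorimetric malachite green readout of phosphate released when MAT2A turns over L-Met and ATP, after 60 min at room temperature. Enzyme: SF9-expressed His6-tagged MAT2A at 1 μg/ml. Buffer: Tris pH 8.0, 50 mM KCl, 15 mM MgCl2, 300 uM EDTA, 0.005% BSA. Compounds tested as ten-point three-fold dilutions.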
# T1 sequence (P31153 whole entry): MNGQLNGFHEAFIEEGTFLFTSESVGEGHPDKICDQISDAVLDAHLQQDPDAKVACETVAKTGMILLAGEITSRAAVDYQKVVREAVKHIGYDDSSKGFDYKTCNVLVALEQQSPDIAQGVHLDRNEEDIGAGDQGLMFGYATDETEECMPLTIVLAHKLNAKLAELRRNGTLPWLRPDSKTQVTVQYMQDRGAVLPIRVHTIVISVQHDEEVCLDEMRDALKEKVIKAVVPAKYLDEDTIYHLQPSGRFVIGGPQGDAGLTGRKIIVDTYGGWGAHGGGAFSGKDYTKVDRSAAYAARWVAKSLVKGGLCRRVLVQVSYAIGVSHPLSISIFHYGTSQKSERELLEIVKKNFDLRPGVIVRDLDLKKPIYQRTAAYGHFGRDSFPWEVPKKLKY
row,SMILES,IC50 [nM]
1,"COc1ccc(-c2c(CO)[nH]c3c(-c4ccccc4)c(-c4ccccc4)nn3c2=O)cc1 [Compound 221, 5-(hydroxymethyl)-6-(4-methoxyphenyl)-2,3-diphenylpyrazolo[1,5-a]pyrimidin-7(4H)-one]",< 100
2,"COc1ccc(-c2c(CN)[nH]c3c(-c4ccccc4)c(-c4ccccc4)nn3c2=O)cc1 [Compound 222, 5-(aminomethyl)-6-(4-methoxyphenyl)-2,3-diphenylpyrazolo[1,5-a]pyrimidin-7(4H)-one]",< 100
3,"NCc1[nH]c2c(-c3ccccc3)c(-c3ccccc3)nn2c(=O)c1-c1ccc2c(c1)OCCO2 [Compound 223, 5-(aminomethyl)-6-(2,3-dihydrobenzo[b][1,4]dioxin-6-yl)-2,3-diphenylpyrazolo[1,5-a]pyrimidin-7(4H)-one]",< 100
4,"NCc1[nH]c2c(-c3ccccc3)c(-c3ccccc3)nn2c(=O)c1-c1ccc2ncccc2c1 [Compound 224, 5-(aminomethyl)-2,3-diphenyl-6-(quinolin-6-yl)pyrazolo[1,5-a]pyrimidin-7(4H)-one]",< 100
5,"O=c1c(-c2ccc3c(c2)OCCO3)c(CO)[nH]c2c(C3=CCCCC3)c(-c3ccccc3)nn12 [Compound 225, 3-(cyclohex-1-en-1-yl)-6-(2,3-dihydrobenzo[b][1,4]dioxin-6-yl)-5-(hydroxymethyl)-2-phenylpyrazolo[1,5-a]pyrimidin-7(4H)-one]",< 100
6,"NCc1[nH]c2c(C3=CCCCC3)c(-c3ccccc3)nn2c(=O)c1-c1ccc2c(c1)OCCO2 [Compound 226, 5-(aminomethyl)-3-(cyclohex-1-en-1-yl)-6-(2,3-dihydrobenzo[b][1,4]dioxin-6-yl)-2-phenylpyrazolo[1,5-a]pyrimidin-7(4H)-one]",< 100
7,"O=C(CO)NCc1[nH]c2c(-c3ccccc3)c(-c3ccccc3)nn2c(=O)c1-c1ccc2ncccc2c1 [Compound 227, 2-hydroxy-N-((7-oxo-2,3-diphenyl-6-(quinolin-6-yl)-4,7-dihydropyrazolo[1,5-a]pyrimidin-5-yl)methyl)acetamide]",< 100
8,"CC(=O)NCc1[nH]c2c(-c3ccccc3)c(-c3ccccc3)nn2c(=O)c1-c1ccc2ncccc2c1 [Compound 228, N-((7-oxo-2,3-diphenyl-6-(quinolin-6-yl)-4,7-dihydropyrazolo[1,5-a]pyrimidin-5-yl)methyl)acetamide]",< 100
9,"COc1ccc(-c2c(CO)[nH]c3c(C4=CCCCC4)c(-c4ccccc4)nn3c2=O)cc1 [Compound 229, 3-(cyclohex-1-en-1-yl)-5-(hydroxymethyl)-6-(4-methoxyphenyl)-2-phenylpyrazolo[1,5-a]pyrimidin-7(4H)-one]",< 100
10,"O=c1c(-c2ccc3ncccc3c2)c(CO)[nH]c2c(C3=CCCCC3)c(-c3ccccc3)nn12 [Compound 230, 3-(cyclohex-1-en-1-yl)-5-(hydroxymethyl)-2-phenyl-6-(quinolin-6-yl)pyrazolo[1,5-a]pyrimidin-7(4H)-one]",< 100
11,"O=c1c(-c2ccc3nccnc3c2)c(CO)[nH]c2c(C3=CCCCC3)c(-c3ccccc3)nn12 [Compound 231, 3-(cyclohex-1-en-1-yl)-5-(hydroxymethyl)-2-phenyl-6-(quinoxalin-6-yl)pyrazolo[1,5-a]pyrimidin-7(4H)-one]",< 100
12,"COc1ccc(-c2c(CN)[nH]c3c(C4=CCCCC4)c(-c4ccccc4)nn3c2=O)cc1 [Compound 232, 5-(aminomethyl)-3-(cyclohex-1-en-1-yl)-6-(4-methoxyphenyl)-2-phenylpyrazolo[1,5-a]pyrimidin-7(4H)-one]",< 100
13,"NCc1[nH]c2c(C3=CCCCC3)c(-c3ccccc3)nn2c(=O)c1-c1ccc2ncccc2c1 [Compound 233, 5-(aminomethyl)-3-(cyclohex-1-en-1-yl)-2-phenyl-6-(quinolin-6-yl)pyrazolo[1,5-a]pyrimidin-7(4H)-one]",< 100
14,"NCc1[nH]c2c(C3=CCCCC3)c(-c3ccccc3)nn2c(=O)c1-c1ccc2nccnc2c1 [Compound 234, 5-(aminomethyl)-3-(cyclohex-1-en-1-yl)-2-phenyl-6-(quinoxalin-6-yl)pyrazolo[1,5-a]pyrimidin-7(4H)-one]",< 100
15,"NC(=O)NCc1[nH]c2c(-c3ccccc3)c(-c3ccccc3)nn2c(=O)c1-c1ccc2ncccc2c1 [Compound 235, 1-((7-oxo-2,3-diphenyl-6-(quinolin-6-yl)-4,7-dihydropyrazolo[1,5-a]pyrimidin-5-yl)methyl)urea]",< 100
16,"NCc1[nH]c2c(-c3ccccc3)c(-c3ccccc3)nn2c(=O)c1-c1ccc(O)cc1 [Compound 236, 5-(aminomethyl)-6-(4-hydroxyphenyl)-2,3-diphenylpyrazolo[1,5-a]pyrimidin-7(4H)-one]",< 100
17,"Cc1[nH]c2c(-c3ccccc3)c(-c3ccccc3)nn2c(=O)c1-c1ccc(O)cc1 [Compound 237, 6-(4-hydroxyphenyl)-5-methyl-2,3-diphenylpyrazolo[1,5-a]pyrimidin-7(4H)-one]",< 100
18,"Cc1[nH]c2c(-c3ccccc3)c(-c3ccccc3)nn2c(=O)c1-c1ccc(O)c(F)c1 [Compound 238, 6-(3-fluoro-4-hydroxyphenyl)-5-methyl-2,3-diphenylpyrazolo[1,5-a]pyrimidin-7(4H)-one]",< 100

row,SMILES,IC50 [nM]
1,"Cc1[nH]c2c(-c3ccccc3)c(-c3ccccc3)nn2c(=O)c1-c1ccc(O)c(Cl)c1 [Compound 239, 6-(3-chloro-4-hydroxyphenyl)-5-methyl-2,3-diphenylpyrazolo[1,5-a]pyrimidin-7(4H)-one]",< 100
2,"Cc1[nH]c2c(C3=CCCCC3)c(-c3ccccc3)nn2c(=O)c1-c1ccc(O)cc1 [Compound 240, 3-(cyclohex-1-en-1-yl)-6-(4-hydroxyphenyl)-5-methyl-2-phenylpyrazolo[1,5-a]pyrimidin-7(4H)-one]",< 100
3,"NCc1[nH]c2c(C3=CCCCC3)c(-c3ccccc3)nn2c(=O)c1-c1ccc(O)cc1 [Compound 241, 5-(aminomethyl)-3-(cyclohex-1-en-1-yl)-6-(4-hydroxyphenyl)-2-phenylpyrazolo[1,5-a]pyrimidin-7(4H)-one]",< 100
4,"Cc1[nH]c2c(-c3ccccc3)c(-c3ccc(O)cc3)nn2c(=O)c1-c1ccc2ncccc2c1 [Compound 242, 2-(4-hydroxyphenyl)-5-methyl-3-phenyl-6-(quinolin-6-yl)pyrazolo[1,5-a]pyrimidin-7(4H)-one]",< 100
5,"COc1ccc(-c2nn3c(=O)c(-c4ccc5ncccc5c4)c(C)[nH]c3c2-c2ccccc2)cc1 [Compound 243, 2-(4-methoxyphenyl)-5-methyl-3-phenyl-6-(quinolin-6-yl)pyrazolo[1,5-a]pyrimidin-7(4H)-one]",1000 to 10000
6,"O=c1c(-c2ccc3ncccc3c2)c[nH]c2c(-c3ccccc3)c(-c3ccccc3)nn12 [Compound 244, 2,3-diphenyl-6-(quinolin-6-yl)pyrazolo[1,5-a]pyrimidin-7(4H)-one]",< 100
7,"Cc1[nH]c2c(-c3ccccc3)c(-c3ccccc3)nn2c(=O)c1-c1ccc2ncncc2c1 [Compound 245, 5-methyl-2,3-diphenyl-6-(quinazolin-6-yl)pyrazolo[1,5-a]pyrimidin-7(4H)-one]",< 100
8,"Cc1[nH]c2c(-c3ccccc3)c(-c3ccccc3)nn2c(=O)c1-c1ccc2nc(C(=O)O)ccc2c1 [Compound 246, 6-(5-methyl-7-oxo-2,3-diphenyl-4,7-dihydropyrazolo[1,5-a]pyrimidin-6-yl) quinoline-2-carboxylic Acid]",< 100
9,"Cc1nc2ccc(-c3c(C)[nH]c4c(-c5ccccc5)c(-c5ccccc5)nn4c3=O)cc2cc1O [Compound 247, 6-(3-hydroxy-2-methylquinolin-6-yl)-5-methyl-2,3-diphenylpyrazolo[1,5-a]pyrimidin-7(4H)-one]",< 100
10,"COc1ccc(-c2c(CO)n(C)c3c(-c4ccccc4)c(-c4ccccc4)nn3c2=O)cc1 [Compound 249, 5-(hydroxymethyl)-6-(4-methoxyphenyl)-4-methyl-2,3-diphenylpyrazolo[1,5-a]pyrimidin-7(4H)-one]",< 100
11,"Cc1[nH]c2c(-c3ccccc3)c(-c3ccc(N)cc3)nn2c(=O)c1-c1ccc2ncccc2c1 [Compound 250, 2-(4-aminophenyl)-5-methyl-3-phenyl-6-(quinolin-6-yl)pyrazolo[1,5-a]pyrimidin-7(4H)-one]",< 100
12,"Cc1[nH]c2c(-c3ccccc3)c(-c3ccc([N+](=O)[O-])cc3)nn2c(=O)c1-c1ccc2ncccc2c1 [Compound 251, 5-methyl-2-(4-nitrophenyl)-3-phenyl-6-(quinolin-6-yl)pyrazolo[1,5-a]pyrimidin-7(4H)-one]",1000 to 10000
13,"Cc1[nH]c2c(-c3ccccc3)c(-c3cc[nH]c3)nn2c(=O)c1-c1ccc2ncccc2c1 [Compound 252, 5-methyl-3-phenyl-2-(1H-pyrrol-3-yl)-6-(quinolin-6-yl)pyrazolo[1,5-a]pyrimidin-7(4H)-one]",< 100
14,"Cc1[nH]c2c(-c3ccccc3)c(-c3ccccc3)nn2c(=O)c1-c1ccc2nc(CN)sc2c1 [Compound 253, 6-(2-(aminomethyl)benzo[d]thiazol-6-yl)-5-methyl-2,3-diphenylpyrazolo[1,5-a]pyrimidin-7(4H)-one]",< 100
15,"COc1cnc2ccc(-c3c(C)[nH]c4c(-c5ccccc5)c(-c5ccccc5)nn4c3=O)cc2n1 [Compound 254, 6-(3-methoxy-quinoxalin-6-yl)-5-methyl-2,3-diphenylpyrazolo[1,5-a]-pyrimidin-7(4H)-one]",< 100
16,"Cc1[nH]c2c(N3CCCCC3)c(-c3ccccc3)nn2c(=O)c1-c1ccc2nccnc2c1 [Compound 255, 5-methyl-2-phenyl-3-(piperidin-1-yl)-6-(quinoxalin-6-yl)pyrazolo[1,5-a]pyrimidin-7(4H)-one]",< 100
17,"Cc1[nH]c2c(-c3ccccc3)c(-c3ccccc3)nn2c(=O)c1-c1ccc2ncn(C)c2c1 [Compound 256, 5-methyl-6-(1-methyl-1H-benzo[d]imidazol-6-yl)-2,3-diphenylpyrazolo[1,5-a]pyrimidin-7(4H)-one]",< 100

# Reference: US10800782B2, “Inhibitors of cellular metabolic processes” (Agios Pharmaceuticals, Inc., priority 2016, dated 2020)
